Measurements taken from US10597388B2, “Pyridazinone herbicides” (FMC CORPORATION, priority 2014, dated 2020).
Where two headings read alike, the source gives them in different places.

How the values were obtained:
Format in all cases: in vivo
[1] = system: barnyardgrass (Echinochloa crus-galli); assay: Test A greenhouse herbicide test, pre- and postemergence; details: Echinochloa crus-galli, 240 h, 1000 g ai/ha, 0 to 100 scale
Procedure, shortened: (§1)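 Visual injury ratings, 0 (no effect) to 100 (complete control), versus untreated plants after roughly 10 d in a greenhouse. Compounds, formulated in a surfactant-containing non-phytotoxic solvent, were sprayed on loam–sand soil after sowing (pre) or on one- to two-leaf plants 2–10 cm tall (post).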

corn (Zea mays) = assay: as above; details: Zea mays, 240 h, 1000 g ai/ha, 0 to 100 scale
Procedure, shortened: as §1

[2] = system: crabgrass, large (large crabgrass, Digitaria sanguinalis); assay: as above; details: 240 h, 1000 g ai/ha, 0 to 100 scale
Procedure, shortened: as §1

[3] = system: foxtail, giant (giant foxtail, Setaria faberii); assay: as above; details: Setaria faberi, 240 h, 1000 g ai/ha, 0 to 100 scale
Procedure, shortened: as §1

[4] = system: momingglory (Ipomoea spp.); assay: as above; details: 240 h, 1000 g ai/ha, 0 to 100 scale
Procedure, shortened: as §1

[5] = system: pigweed (Amaranthus retroflexus); assay: as above; details: Amaranthus retroflexus, 240 h, 1000 g ai/ha, 0 to 100 scale
Procedure, shortened: as §1

[6] = system: velvetleaf (Abutilon theophrasti); assay: as above; details: 240 h, 1000 g ai/ha, 0 to 100 scale
Procedure, shortened: as §1

[7] = system: wheat (Triticum aestivum); assay: as above; details: Triticum aestivum, 240 h, 1000 g ai/ha, 0 to 100 scale
Procedure, shortened: as §1

[8] = system: barnyardgrass (Echinochloa crus-galli); assay: Test B flooded paddy test; details: Echinochloa crus-galli, 360 h; 250 g ai/ha, Flood; visual rating on scale of 0 to 100 where 0 is no effect and 100 is complete control; 13 to 15 d after treatment; read-out: Plant response rating, Barnyardgrass
Procedure, shortened: (§2)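 Ratings use a 0-100 visual scale, where 100 is complete control, and compare treated plants with controls after 13 to 15 d of greenhouse growth. Compound went straight into paddy water kept 3 cm over the soil surface, applied to seedlings at the 2-leaf stage.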

[9] = system: ducksalad (Heteranthera limosa); assay: Test B flooded paddy test; details: Heteranthera limosa, 360 h; 250 g ai/ha, Flood; visual rating on scale of 0 to 100 where 0 is no effect and 100 is complete control; 13 to 15 d after treatment; read-out: Plant response rating, Ducksalad
Procedure, shortened: as §2

rice (Oryza sativa) = assay: Test B flooded paddy test; details: Oryza sativa, 360 h; 250 g ai/ha, Flood; visual rating on scale of 0 to 100 where 0 is no effect and 100 is complete control; 13 to 15 d after treatment; read-out: Plant response rating, Rice
Procedure, shortened: as §2

[10] = system: sedge, umbrella (small-flower umbrella sedge, Cyperus difformis); assay: Test B flooded paddy test; details: Cyperus difformis, 360 h; 250 g ai/ha, Flood; visual rating on scale of 0 to 100 where 0 is no effect and 100 is complete control; 13 to 15 d after treatment; read-out: Plant response rating, Sedge, Umbrella
Procedure, shortened: as §2

[11] = system: ALOMY, blackgrass (Alopecurus myosuroides); assay: Test F mixtures with commercial herbicides, Post- or Pre-emergence; details: Post-emergence, scale 0-100
Experimental: (§3) This test evaluated the effect of mixtures of Compound 1 or Compound 2 with various commercial herbicides on multiple plant species. Seeds of multiple plant species selected were planted into Sandy Loam soil and treated either Post-emergence or Pre-emergence with test chemicals formulated in a non-phytotoxic solvent mixture. Plants were grown in a greenhouse using supplemental lighting to maintain a photoperiod of approximately 16 h; daytime and nighttime temperatures were approximately 24-30 and 19-21° C., respectively. Balanced fertilizer was applied through the watering system. Treated plants and controls were maintained in a greenhouse for 20 d, after which time all species were compared to controls and visually evaluated. Plant response ratings summarized in Tables F1 through F4 and are based on a scale of 0 to 100 where 0 is no effect and 100 is complete control. A dash (-) response means no test result. Application rates (i.e. “Rate”) are expressed in grams of active ingredient per hectare (g a.i./ha). In the following tables KCHSC is kochia (Kochia scoparia), LOLMU in Italian Ryegrass (Lolium multiflorum), AMBEL is common ragweed (Ambrosia elatior), ECHCG is barnyardgrass (Echinochloa crus-galli), SETVI is giant foxtail (Setaria faberii), AMARE is redroot pigweed (Amaranthus retroflexus), ALOMY is blackgrass (Alopecurus myosuroides) and GALAP is galium (Galium aparine). “Obsd.” is observed effect. “Exp.” is expected effect calculated from Colby's Equation.
(§4) Colby's Equation was used to determine the herbicidal effects expected from the mixtures. Colby's Equation (Colby, S. R. “Calculating Synergistic and Antagonistic Responses of Herbicide Combinations,” Weeds, 15(1), pp 20-22 (1967)) calculates the expected additive effect of herbicidal mixtures, and for two active ingredients is of the form: Pa+b=Pa+Pb−(PaPb/100)
(§5) wherein Pa+b is the percentage effect of the mixture expected from additive contribution of the individual components:
(§6) Pa is the observed percentage effect of the first active ingredient at the same use rate as in the mixture, and
(§7) Pb is the observed percentage effect of the second active ingredient at the same use rate as in the mixture.

[12] = system: AMARE, redroot pigweed (Amaranthus retroflexus); assay: as above
Experimental: as §3, §4, §5, §6, §7

[13] = system: AMBEL, common ragweed (Ambrosia elatior); assay: as above
Experimental: as §3, §4, §5, §6, §7

[14] = system: ECHCG, barnyardgrass (Echinochloa crus-galli); assay: as above
Experimental: as §3, §4, §5, §6, §7

[15] = system: GALAP, galium (Galium aparine); assay: as above; details: Post-emergence, scale 0-100
Experimental: as §3, §4, §5, §6, §7

[16] = system: KCHSC, kochia (Kochia scoparia); assay: as above
Experimental: as §3, §4, §5, §6, §7

[17] = system: LOLMU, Italian Ryegrass (Lolium multiflorum); assay: as above
Experimental: as §3, §4, §5, §6, §7

[18] = system: SETVI, giant foxtail (Setaria faberii); assay: as above
Experimental: as §3, §4, §5, §6, §7

[19] = Post-emergence, Rate 4 g a.i./ha, scale 0-100
[20] = Post-emergence, Rate 16 g a.i./ha, scale 0-100
[21] = Pre-emergence, Rate 4 g a.i./ha, applied alone, 20 d, scale 0 to 100
[22] = Pre-emergence, Rate 16 g a.i./ha, applied alone, 20 d, scale 0 to 100

## Cc1ccc2oc(C)c(-c3c(O)c(C)nn(C)c3=O)c2c1 [Compound 7, 4-(2,5-dimethyl-3-benzofuranyl)-5-hydroxy-2,6-dimethyl-3(2H)-pyridazinone]
[1]; post-emergence, Postemergence, 0 is no effect, 100 is complete control, read-out: Barnyardgrass plant response rating
  pest or weed control at 1000 g/ha: 90%
[1]; pre-emergence, Preemergence, 0 no effect, 100 complete control, read-out: Plant response rating, Barnyardgrass
  pest or weed control at 1000 g/ha: 100%
Corn (Zea mays); post-emergence, Postemergence, 0 is no effect, 100 is complete control, read-out: Corn plant response rating
  plant injury at 1000 g/ha: 10%
Corn (Zea mays); pre-emergence, Preemergence, 0 no effect, 100 complete control
  Corn plant response rating (crop injury, 0 = no effect, 100 = complete kill) at 1000 g/ha: 30%
[2]; post-emergence, Postemergence, 0 is no effect, 100 is complete control, read-out: Crabgrass, Large plant response rating
  pest or weed control at 1000 g/ha: 50%
[2]; pre-emergence, Preemergence, 0 no effect, 100 complete control, read-out: Plant response rating, Crabgrass, Large
  pest or weed control at 1000 g/ha: 90%
[3]; post-emergence, Postemergence, 0 is no effect, 100 is complete control, read-out: Foxtail, Giant plant response rating
  pest or weed control at 1000 g/ha: 90%
[3]; pre-emergence, Preemergence, 0 no effect, 100 complete control, read-out: Plant response rating, Foxtail, Giant
  pest or weed control at 1000 g/ha: 90%
[4]; post-emergence, Postemergence, 0 is no effect, 100 is complete control, read-out: Morningglory plant response rating
  pest or weed control at 1000 g/ha: 100%
[4]; pre-emergence, Preemergence, 0 no effect, 100 complete control, read-out: Plant response rating, Morningglory
  pest or weed control at 1000 g/ha: 80%
[5]; post-emergence, Postemergence, 0 is no effect, 100 is complete control, read-out: Pigweed plant response rating
  pest or weed control at 1000 g/ha: 100%
[5]; pre-emergence, Preemergence, 0 no effect, 100 complete control, read-out: Plant response rating, Pigweed
  pest or weed control at 1000 g/ha: 100%
[6]; post-emergence, Postemergence, 0 is no effect, 100 is complete control, read-out: Velvetleaf plant response rating
  pest or weed control at 1000 g/ha: 100%
[6]; pre-emergence, Preemergence, 0 no effect, 100 complete control, read-out: Plant response rating, Velvetleaf
  pest or weed control at 1000 g/ha: 80%
[7]; post-emergence, Postemergence, 0 is no effect, 100 is complete control, read-out: Wheat plant response rating
  plant injury at 1000 g/ha: 20%
[7]; pre-emergence, Preemergence, 0 no effect, 100 complete control, read-out: Plant response rating, Wheat
  plant injury at 1000 g/ha: 0%
[8]
  pest or weed control at 250 g/ha: 20%
[9]
  pest or weed control at 250 g/ha: 60%
Rice (Oryza sativa)
  plant injury at 250 g/ha: 0%
[10]
  pest or weed control at 250 g/ha: 60%

## CS(=O)(=O)c1ccc(C(=O)C2C(=O)CCCC2=O)c([N+](=O)[O-])c1 [mesotrione]
[11]; Rate 4 g a.i./ha
  ALOMY Obsd.: 0.0
[11]; Rate 16 g a.i./ha
  ALOMY Obsd.: 0.0
[12]; [19]
  AMARE Obsd.: 0.0
[12]; [20]
  AMARE Obsd.: 30.0
[12]; [21]
  AMARE Obsd.: 0
[12]; [22]
  AMARE Obsd.: 20
[13]; [19]
  AMBEL Obsd.: 0.0
[13]; [20]
  AMBEL Obsd.: 75.0
[13]; [21]
  AMBEL Obsd.: 0
[13]; [22]
  AMBEL Obsd.: 30
[14]; [19]
  ECHCG Obsd.: 0.0
[14]; [20]
  ECHCG Obsd.: 20.0
[14]; [21]
  ECHCG Obsd.: 0
[14]; [22]
  ECHCG Obsd.: 0
[15]; Rate 4 g a.i./ha
  GALAP Obsd.: 0.0
[15]; Rate 16 g a.i./ha
  GALAP Obsd.: 35.0
[16]; [19]
  KCHSC Obsd.: 0.0
[16]; [20]
  KCHSC Obsd.: 90.0
[16]; [21]
  KCHSC Obsd.: 0
[16]; [22]
  KCHSC Obsd.: 50
[17]; [19]
  LOLMU Obsd.: 0.0
[17]; [20]
  LOLMU Obsd.: 0.0
[17]; [21]
  LOLMU Obsd.: 0
[17]; [22]
  LOLMU Obsd.: 0
[18]; [19]
  SETVI Obsd.: 0.0
[18]; [20]
  SETVI Obsd.: 0.0
[18]; [21]
  SETVI Obsd.: 0
[18]; [22]
  SETVI Obsd.: 0
